{"source": "patent EP4635500A1", "about": "“THERAPEUTIC AGENT FOR BACTERIAL INFECTION” (Sumitomo Pharma Co., Ltd., priority 2022, dated 2024)", "key": {"53 CRE and CPE strains": {"system": "53 CRE and CPE strains", "test": "MICrange, MIC50, MIC80, MIC90 for 53 bacterial isolates (Example 5, Table 5)", "assay_type": "cell-based", "settings": "53 bacterial isolates"}, "Enterobacterales": {"system": "Enterobacterales", "test": "MIC, broth microdilution, CDC/FDA Antibiotic Resistance Isolate Bank (Example 7, Tables 8, 11, 12)", "assay_type": "cell-based", "settings": "read-out: MIC"}}, "note": "Like-named read-outs stand apart in the source and are kept apart here."}
{"smiles": "C[C@H]1COc2c(N3CCN(C)CC3)c(F)cc3c(=O)c(C(=O)O)cn1c23", "note": "[Levofloxacin, levofloxacin]", "values": [{"measurement": "MIC50", "setting": "53 CRE and CPE strains; read-out: MIC50", "result": 16, "unit": "µg/mL"}, {"measurement": "MIC80", "setting": "53 CRE and CPE strains; read-out: MIC80", "result": 64, "unit": "µg/mL"}, {"measurement": "MIC90", "setting": "53 CRE and CPE strains; read-out: MIC90", "result": 64, "unit": "µg/mL"}, {"measurement": "MIC", "setting": "Enterobacterales; Citrobacter freundii, KUB No. 5654, AR Bank # 157", "result": "> 64", "unit": "µg/mL"}, {"measurement": "MIC", "setting": "Enterobacterales; Enterobacter cloacae, Enterobacter cloacae KUB No. 5792, AR Bank #448", "result": "> 64", "unit": "µg/mL"}, {"measurement": "MIC", "setting": "Enterobacterales; Enterobacter cloacae, Enterobacter cloacae KUB No. 5807, AR Bank #501", "result": 1, "unit": "µg/mL"}, {"measurement": "MIC", "setting": "Enterobacterales; Enterobacter cloacae, Enterobacter cloacae KUB No. 5808, AR Bank #502", "result": 8, "unit": "µg/mL"}, {"measurement": "MIC", "setting": "Enterobacterales; Enterobacter cloacae, Enterobacter cloacae complex, KUB No. 5661, AR Bank # 164", "result": 0.12, "unit": "µg/mL"}, {"measurement": "MIC", "setting": "Enterobacterales; Enterobacter cloacae, Enterobacter cloacae group, KUB No. 5629, AR Bank # 132", "result": 0.06, "unit": "µg/mL"}, {"measurement": "MIC", "setting": "Enterobacterales; Enterobacter cloacae, KUB No. 5529, AR Bank# 32", "result": 1, "unit": "µg/mL"}, {"measurement": "MIC", "setting": "Enterobacterales; Enterobacter cloacae, KUB No. 5535, AR Bank# 38", "result": 64, "unit": "µg/mL"}, {"measurement": "MIC", "setting": "Enterobacterales; Enterobacter cloacae, KUB No. 5547, AR Bank# 50", "result": 8, "unit": "µg/mL"}, {"measurement": "MIC", "setting": "Enterobacterales; Enterobacter cloacae, KUB No. 5550, AR Bank# 53", "result": 32, "unit": "µg/mL"}, {"measurement": "MIC", "setting": "Enterobacterales; Enterobacter cloacae, KUB No. 5557, AR Bank# 60", "result": 0.06, "unit": "µg/mL"}, {"measurement": "MIC", "setting": "Enterobacterales; Enterobacter cloacae, KUB No. 5660, AR Bank # 163", "result": 32, "unit": "µg/mL"}, {"measurement": "MIC", "setting": "Enterobacterales; Enterobacter cloacae, KUB No. 5761, AR Bank # 365", "result": 4, "unit": "µg/mL"}, {"measurement": "MIC", "setting": "Enterobacterales; Enterobacter cloacae, KUB No. 5762, AR Bank # 366", "result": 0.5, "unit": "µg/mL"}, {"measurement": "MIC", "setting": "Enterobacterales; Enterobacter cloacae, KUB No. 5763, AR Bank # 367", "result": 1, "unit": "µg/mL"}, {"measurement": "MIC", "setting": "Enterobacterales; Enterobacter cloacae, KUB No. 5778, AR Bank # 432", "result": 0.12, "unit": "µg/mL"}, {"measurement": "MIC", "setting": "Enterobacterales; Enterobacter cloaccae, KUB No. 5651, AR Bank # 154", "result": 1, "unit": "µg/mL"}, {"measurement": "MIC", "setting": "Enterobacterales; Enterobacter clooreae, KUB No. 5633, AR Bank # 136", "result": 16, "unit": "µg/mL"}, {"measurement": "MIC", "setting": "Enterobacterales; Escherichia coli, Escherichia coli KUB No. 5783, AR Bank #437", "result": 32, "unit": "µg/mL"}, {"measurement": "MIC", "setting": "Enterobacterales; Escherichia coli, Escherichia coli KUB No. 5794, AR Bank #450", "result": 0.12, "unit": "µg/mL"}, {"measurement": "MIC", "setting": "Enterobacterales; Escherichia coli, Escherichia coli KUB No. 5795, AR Bank #451", "result": 32, "unit": "µg/mL"}, {"measurement": "MIC", "setting": "Enterobacterales; Escherichia coli, Escherichia coli KUB No. 5796, AR Bank #452", "result": 64, "unit": "µg/mL"}, {"measurement": "MIC", "setting": "Enterobacterales; Escherichia coli, Escherichia coli KUB No. 5803, AR Bank #861", "result": 16, "unit": "µg/mL"}, {"measurement": "MIC", "setting": "Enterobacterales; Escherichia coli, KUB No. 5601, AR Bank # 104", "result": 16, "unit": "µg/mL"}, {"measurement": "MIC", "setting": "Enterobacterales; Escherichia coli, KUB No. 5611, AR Bank # 114", "result": 32, "unit": "µg/mL"}, {"measurement": "MIC", "setting": "Enterobacterales; Escherichia coli, KUB No. 5615, AR Bank # 118", "result": 32, "unit": "µg/mL"}, {"measurement": "MIC", "setting": "Enterobacterales; Escherichia coli, KUB No. 5616, AR Bank # 119", "result": 32, "unit": "µg/mL"}, {"measurement": "MIC", "setting": "Enterobacterales; Escherichia coli, KUB No. 5625, AR Bank # 128", "result": 32, "unit": "µg/mL"}, {"measurement": "MIC", "setting": "Enterobacterales; Escherichia coli, KUB No. 5634, AR Bank # 137", "result": 64, "unit": "µg/mL"}, {"measurement": "MIC", "setting": "Enterobacterales; Escherichia coli, KUB No. 5646, AR Bank # 149", "result": 8, "unit": "µg/mL"}, {"measurement": "MIC", "setting": "Enterobacterales; Escherichia coli, KUB No. 5647, AR Bank # 150", "result": 32, "unit": "µg/mL"}, {"measurement": "MIC", "setting": "Enterobacterales; Escherichia coli, KUB No. 5648, AR Bank # 151", "result": 32, "unit": "µg/mL"}, {"measurement": "MIC", "setting": "Enterobacterales; Escherichia coli, KUB No. 5659, AR Bank # 162", "result": 32, "unit": "µg/mL"}, {"measurement": "MIC", "setting": "Enterobacterales; Escherichia coli, KUB No. 5764, AR Bank # 368", "result": 0.06, "unit": "µg/mL"}, {"measurement": "MIC", "setting": "Enterobacterales; Escherichia coli, KUB No. 5765, AR Bank # 369", "result": 0.06, "unit": "µg/mL"}, {"measurement": "MIC", "setting": "Enterobacterales; Escherichia coli, KUB No. 5766, AR Bank # 370", "result": 16, "unit": "µg/mL"}, {"measurement": "MIC", "setting": "Enterobacterales; Escherichia coli, KUB No. 5767, AR Bank # 371", "result": 16, "unit": "µg/mL"}, {"measurement": "MIC", "setting": "Enterobacterales; Escherichia coli, KUB No. 5768, AR Bank # 372", "result": 16, "unit": "µg/mL"}, {"measurement": "MIC", "setting": "Enterobacterales; Escherichia coli, KUB No. 5769, AR Bank # 373", "result": 32, "unit": "µg/mL"}, {"measurement": "MIC", "setting": "Enterobacterales; Escherichia coli, KUB No. 5770, AR Bank # 374", "result": 32, "unit": "µg/mL"}, {"measurement": "MIC", "setting": "Enterobacterales; Escherichia coli, KUB No. 5774, AR Bank # 378", "result": 8, "unit": "µg/mL"}, {"measurement": "MIC", "setting": "Enterobacterales; Escherichia coli, KUB No. 5779, AR Bank # 433", "result": 32, "unit": "µg/mL"}, {"measurement": "MIC", "setting": "Enterobacterales; Escherichia coli, KUB No. 5780, AR Bank # 434", "result": 16, "unit": "µg/mL"}, {"measurement": "MIC", "setting": "Enterobacterales; Escherichia coli, KUB No. 5781, AR Bank # 435", "result": 32, "unit": "µg/mL"}, {"measurement": "MIC", "setting": "Enterobacterales; Escherichia, KUB No. 57, AR Bank # 436 (row cut off)", "result": 32, "unit": "µg/mL"}, {"measurement": "MIC", "setting": "Enterobacterales; Klebsiella aerogenes, Enterobacter aerogenes, KUB No. 5658, AR Bank # 161", "result": 0.12, "unit": "µg/mL"}, {"measurement": "MIC", "setting": "Enterobacterales; Klebsiella aerogenes, Enterobacter aerogenes, KUB No. 5777, AR Bank # 431", "result": 1, "unit": "µg/mL"}, {"measurement": "MIC", "setting": "Enterobacterales; Klebsiella oxytoca, KUB No. 5644, AR Bank # 147", "result": 0.06, "unit": "µg/mL"}, {"measurement": "MIC", "setting": "Enterobacterales; Klebsiella oxytoca, KUB No. 5771, AR Bank # 375", "result": 0.12, "unit": "µg/mL"}, {"measurement": "MIC", "setting": "Enterobacterales; Klebsiella oxytoca, KUB No. 5776, AR Bank # 380", "result": 0.5, "unit": "µg/mL"}, {"measurement": "MIC", "setting": "Enterobacterales; Klebsiella ozaenae, KUB No. 5548, AR Bank# 51", "result": 16, "unit": "µg/mL"}, {"measurement": "MIC", "setting": "Enterobacterales; Klebsiella pnemnonine, KUB No. 5758, AR Bank # 362", "result": 64, "unit": "µg/mL"}, {"measurement": "MIC", "setting": "Enterobacterales; Klebsiella pneumoniae, KUB No. 55, AR Bank# 47", "result": 64, "unit": "µg/mL"}, {"measurement": "MIC", "setting": "Enterobacterales; Klebsiella pneumoniae, KUB No. 5531, AR Bank# 34", "result": 0.5, "unit": "µg/mL"}, {"measurement": "MIC", "setting": "Enterobacterales; Klebsiella pneumoniae, KUB No. 5536, AR Bank# 39", "result": 8, "unit": "µg/mL"}, {"measurement": "MIC", "setting": "Enterobacterales; Klebsiella pneumoniae, KUB No. 5537, AR Bank# 40", "result": 32, "unit": "µg/mL"}, {"measurement": "MIC", "setting": "Enterobacterales; Klebsiella pneumoniae, KUB No. 5538, AR Bank# 41", "result": 8, "unit": "µg/mL"}, {"measurement": "MIC", "setting": "Enterobacterales; Klebsiella pneumoniae, KUB No. 5540, AR Bank# 43", "result": 2, "unit": "µg/mL"}, {"measurement": "MIC", "setting": "Enterobacterales; Klebsiella pneumoniae, KUB No. 5541, AR Bank# 44", "result": 8, "unit": "µg/mL"}, {"measurement": "MIC", "setting": "Enterobacterales; Klebsiella pneumoniae, KUB No. 5543, AR Bank# 46", "result": 32, "unit": "µg/mL"}, {"measurement": "MIC", "setting": "Enterobacterales; Klebsiella pneumoniae, KUB No. 5546, AR Bank# 49", "result": "> 64", "unit": "µg/mL"}, {"measurement": "MIC", "setting": "Enterobacterales; Klebsiella pneumoniae, KUB No. 5603, AR Bank # 106", "result": "> 64", "unit": "µg/mL"}, {"measurement": "MIC", "setting": "Enterobacterales; Klebsiella pneumoniae, KUB No. 5604, AR Bank # 107", "result": 64, "unit": "µg/mL"}, {"measurement": "MIC", "setting": "Enterobacterales; Klebsiella pneumoniae, KUB No. 5606, AR Bank # 109", "result": "> 64", "unit": "µg/mL"}, {"measurement": "MIC", "setting": "Enterobacterales; Klebsiella pneumoniae, KUB No. 5609, AR Bank # 112", "result": 16, "unit": "µg/mL"}, {"measurement": "MIC", "setting": "Enterobacterales; Klebsiella pneumoniae, KUB No. 5610, AR Bank # 113", "result": 16, "unit": "µg/mL"}, {"measurement": "MIC", "setting": "Enterobacterales; Klebsiella pneumoniae, KUB No. 5612, AR Bank # 115", "result": 32, "unit": "µg/mL"}, {"measurement": "MIC", "setting": "Enterobacterales; Klebsiella pneumoniae, KUB No. 5614, AR Bank # 117", "result": 4, "unit": "µg/mL"}, {"measurement": "MIC", "setting": "Enterobacterales; Klebsiella pneumoniae, KUB No. 5617, AR Bank # 120", "result": 64, "unit": "µg/mL"}, {"measurement": "MIC", "setting": "Enterobacterales; Klebsiella pneumoniae, KUB No. 5622, AR Bank # 125", "result": 64, "unit": "µg/mL"}, {"measurement": "MIC", "setting": "Enterobacterales; Klebsiella pneumoniae, KUB No. 5623, AR Bank # 126", "result": 0.12, "unit": "µg/mL"}, {"measurement": "MIC", "setting": "Enterobacterales; Klebsiella pneumoniae, KUB No. 5626, AR Bank # 129", "result": 64, "unit": "µg/mL"}, {"measurement": "MIC", "setting": "Enterobacterales; Klebsiella pneumoniae, KUB No. 5632, AR Bank # 135", "result": 64, "unit": "µg/mL"}, {"measurement": "MIC", "setting": "Enterobacterales; Klebsiella pneumoniae, KUB No. 5635, AR Bank # 138", "result": "> 64", "unit": "µg/mL"}, {"measurement": "MIC", "setting": "Enterobacterales; Klebsiella pneumoniae, KUB No. 5636, AR Bank # 139", "result": 8, "unit": "µg/mL"}, {"measurement": "MIC", "setting": "Enterobacterales; Klebsiella pneumoniae, KUB No. 5637, AR Bank # 140", "result": 16, "unit": "µg/mL"}]}
